The record followed here is patent publication US7674613B2, “Live bacterium preparation containing lactic acid bacterium as active ingredient and food containing lactic acid bacterium” (Frente International Co., Ltd., priority 2002, dated 2010).

The test system of assay [1] is Streptococcus mutans MT 8148 strain. In words: Test Example 4: number of viable S. mutans with oligosaccharides and sugar alcohols, with or without L. salivarius TI 2711. The note with it: 5% addition, aerobic 37° C. 24 hours. Type of assay: cell-based. As to the method: (§1) 5% each of xylitol, erythritol and sorbitol as sugar alcohols, and fructo-oligosaccharide and kestose as oligosaccharides were each added to a liquid medium consisting of GAM bouillon (Nissui) as a base medium and containing 0.7% glucose and 3% sucrose, and each medium was inoculated with 1×10^7 CFU/ml of the Streptococcus mutans MT 8148 strain. Then, aerobic culture was performed at 37° C. for 24 hours.
(§2) On the other hand, 1×10^7 CFU/ml of the Streptococcus mutans MT 8148 strain was inoculated to the aforementioned medium containing 5% of each sugar alcohol or oligosaccharide, and 1×10^7 CFU/ml of the Lactobacillus salivarius TI 2711 strain was further inoculated to the medium. Then, aerobic culture was similarly performed at 37° C. for 24 hours. After completion of the culture, the cell numbers of Streptococcus mutans MT 8148 strain and amounts of insoluble glucan were determined (according to the methods described in Test Example 1) for the both types of culture.

For assay [2] the test system is unchanged. As to the kind of experiment: Test Example 4: insoluble glucan production by S. mutans with oligosaccharides and sugar alcohols, with or without L. salivarius TI 2711. Type of assay: cell-based. How it is done:
as §1, §2

Where [3] appears, read: With inoculation of L. salivarius TI 2711 1×10^7 CFU/ml.
Where [4] appears, read: Without inoculation of L. salivarius, control base medium 4.0 × 10^5.

Turning to `OC[C@@H](O)[C@@H](O)CO` [Erythritol, erythritol], the figures for the “Number of viable cells of S. mutans (CFU/ml)” value (from here on “Number”) in assay [1] (setting [3]) and in assay [1] (setting [4]) were 1.0 × 10^4 CFU/ml and 1.0 × 10^5 CFU/ml, respectively. The “inhibition of the production of insoluble glucan” value in assay [2] (erythritol alone, 5% addition) was “about 60%”; in assay [2] (mixed culture inoculated with Lactobacillus salivarius TI 2711 strain, amount without inoculation taken as 100%), 90%.

Take `OC[C@H]1O[C@@](CO)(OC[C@@]2(O[C@H]3O[C@H](CO)[C@@H](O)[C@H](O)[C@H]3O)O[C@H](CO)[C@@H](O)[C@@H]2O)[C@@H](O)[C@@H]1O` [Kestose, kestose]: the entries for the “Number” value in assay [1] (setting [3]) and in assay [1] (setting [4]) were 2.0 × 10^5 CFU/ml and 5.0 × 10^5 CFU/ml, respectively.

In the case of `OC[C@@H](O)[C@@H](O)[C@H](O)[C@@H](O)CO` [Sorbitol, sorbitol], the “Number” value in assay [1] (setting [3]) was 3.0 × 10^5 CFU/ml; in assay [1] (setting [4]) it was 4.0 × 10^5 CFU/ml.

For `OC[C@@H](O)[C@H](O)[C@@H](O)CO` [Xylitol, xylitol], the figures for the “Number” value in assay [1] (setting [3]) and in assay [1] (setting [4]) were 5.0 × 10^5 CFU/ml and 4.0 × 10^5 CFU/ml, respectively.
